For this experiment, the target named is T1, Peroxisome proliferator-activated receptor gamma (Homo sapiens, UniProt P37231).
T1 sequence (P37231 whole entry): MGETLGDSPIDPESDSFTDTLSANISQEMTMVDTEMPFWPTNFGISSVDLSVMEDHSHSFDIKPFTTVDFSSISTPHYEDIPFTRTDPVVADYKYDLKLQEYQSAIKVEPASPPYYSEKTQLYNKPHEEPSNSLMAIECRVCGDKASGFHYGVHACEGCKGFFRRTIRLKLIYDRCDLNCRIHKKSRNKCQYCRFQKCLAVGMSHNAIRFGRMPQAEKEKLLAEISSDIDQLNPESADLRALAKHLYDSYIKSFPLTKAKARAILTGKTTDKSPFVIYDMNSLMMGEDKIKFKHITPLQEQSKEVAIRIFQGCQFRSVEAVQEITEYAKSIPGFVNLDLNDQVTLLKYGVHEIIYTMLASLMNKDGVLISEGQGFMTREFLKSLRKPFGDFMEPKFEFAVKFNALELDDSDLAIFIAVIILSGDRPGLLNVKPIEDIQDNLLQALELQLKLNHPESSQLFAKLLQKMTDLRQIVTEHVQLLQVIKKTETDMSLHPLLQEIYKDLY
Kind of experiment: Agonist activity at N-terminal His-tagged human PPARgamma ligand binding domain by fluorescence polarization assay. (In general: Fluorescence polarisation rises when a labelled molecule tumbles more slowly, as on binding a larger partner.)

What is called IC50 is the concentration needed to halve the response being measured.

SMILES strings stand for the structures.

In turn, `O=C(O)CCN1C(=O)/C(=C\c2ccc(Cl)cc2Cl)SC1=S` gave an IC50 of 876 nM.
To `Cc1ccc(COc2ccccc2/C=C2/SC(=S)N(CCC(=O)O)C2=O)cc1` belongs 1320 nM.

The values are drawn from ChEMBL document CHEMBL1156253 (Eur J Med Chem, 2010).
